From patent US9296734B2 (AMGEN INC., priority 2013, dated 2016) come the findings set out here.

pIC50: −log10 of the molar value. A value given as a limit tells only on which side of the number the result lay.

Cathepsin D (Cat D), sequence (P07339 65-412, species assumed): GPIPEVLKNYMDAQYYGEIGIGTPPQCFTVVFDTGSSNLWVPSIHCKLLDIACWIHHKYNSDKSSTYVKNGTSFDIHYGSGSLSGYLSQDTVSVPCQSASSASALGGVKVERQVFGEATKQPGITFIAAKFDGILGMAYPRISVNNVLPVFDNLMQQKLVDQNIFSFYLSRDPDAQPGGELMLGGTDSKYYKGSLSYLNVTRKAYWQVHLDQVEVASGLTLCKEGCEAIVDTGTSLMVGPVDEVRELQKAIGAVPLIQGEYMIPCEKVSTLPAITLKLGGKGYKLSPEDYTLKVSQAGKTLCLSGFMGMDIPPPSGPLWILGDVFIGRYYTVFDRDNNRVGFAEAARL

The first experiment concerns the target Cathepsin D (Cat D) (Homo sapiens (Human), UniProt P07339). Nature of the experiment: In vitro enzymatic Cathepsin D (Cat D) FRET assay. Type of experiment: biochemical. Conditions: average IC50, cathepsin D enzyme assay; read-out: CatD IC50. The protocol: In Vitro Enzymatic Cathepsin D (Cat D) FRET (Fluorescence Resonance Energy Transfer) Assay
Recombinant Cat D was expressed in CHO cells. The assay buffer for CathepsinD is 0.05 M citrate pH 3.5, 10% DMSO final, 5 mM CHAPS. […] The assays are effectively started by the addition of different FRET substrates (20 nM for Cat D) and the combination is incubated for one hour. The FRET assay is terminated with by addition of Tris buffer, which raises the pH to neutrality, and the fluorescence is determined. The FRET substrate is a peptide with commercially available fluorophore and quencher, on opposite sides of the BACE cleavage site. […] Proteolytic cleavage of the FRET substrate releases quenching of fluorescence (Cat D excitation 500 nm and emission 580 nm).
In addition, the cathepsin D and cathepsin E assays are described in PCT publication WO2011069934.
Regarding `COc1cccnc1Nc1ccc(F)c([C@]2(CF)C[C@@H](C(F)(F)F)OC(N)=N2)c1` [Example 15, (4S,6S)-4-(2-fluoro-5-((3-methoxypyridin-2-yl)-amino)phenyl)-4-(fluoromethyl)-6-(trifluoromethyl)-5,6-dihydro-4H-1,3-oxazin-2-amine], the negative-log IC50 (pIC50) is 2.97.
With `NC1=N[C@](CF)(c2cc(Nc3ncc(F)c4cc(Cl)cnc34)ccc2F)C[C@@H](C(F)(F)F)O1` [Example 19, (4S,6S)-4-(5-((3-chloro-5-fluoro-1,7-naphthyridin-8-yl)amino)-2-fluorophenyl)-4-(fluoromethyl)-6-(trifluoromethyl)-5,6-dihydro-4H-1,3-oxazin-2-amine], the pIC50 was less than 3.88.
Same read-out and setting: with `NC1=N[C@](CF)(c2cc(Nc3ncnc4sc(C(F)F)nc34)ccc2F)C[C@@H](C(F)(F)F)O1` [Example 21, (4S,6S)-4-(5-((2-(difluoromethyl)thiazolo[5,4-d]pyrimidin-7-yl)amino)-2-fluorophenyl)-4-(fluoromethyl)-6-(trifluoromethyl)-5,6-dihydro-4H-1,3-oxazin-2-amine] the figure was less than 3.40; with `C#CCOc1cnc(C(=O)Nc2ccc(F)c([C@]3(CF)C[C@@H](C(F)(F)F)OC(N)=N3)c2)cn1` [Example 35, N-(3-((4S,6S)-2-amino-4-(fluoromethyl)-6-(trifluoromethyl)-5,6-dihydro-4H-1,3-oxazin-4-yl)-4-fluorophenyl)-5-(prop-2-yn-1-yloxy)pyrazine-2-carboxamide], less than 3.40.
The same measure, in the same setting: with `NC1=N[C@](CF)(c2cc(NC(=O)c3nn(C(F)F)cc3Cl)ccc2F)C[C@@H](C(F)(F)F)O1` [Example 36, N-(3-((4S,6S)-2-amino-4-(fluoromethyl)-6-(trifluoromethyl)-5,6-dihydro-4H-1,3-oxazin-4-yl)-4-fluorophenyl)-4-chloro-1-(difluoromethyl)-1H-pyrazole-3-carboxamide] the figure was 2.62; with `Cc1nc(OCC(F)(F)F)cnc1C(=O)Nc1ccc(F)c([C@]2(CF)C[C@@H](C(F)(F)F)OC(N)=N2)c1` [Example 38, N-(3-((4S,6S)-2-amino-4-(fluoromethyl)-6-(trifluoromethyl)-5,6-dihydro-4H-1,3-oxazin-4-yl)-4-fluorophenyl)-3-methyl-5-(2,2,2-trifluoroethoxy)pyrazine-2-carboxamide], less than 3.40.
On the same count and under the same terms, the same measure for `NC1=N[C@](CF)(c2cc(NC(=O)c3ncc(C(F)(F)F)cc3Cl)ccc2F)C[C@@H](C(F)(F)F)O1` [Example 44, N-(3-((4S,6S)-2-amino-4-(fluoromethyl)-6-(trifluoromethyl)-5,6-dihydro-4H-1,3-oxazin-4-yl)-4-fluorophenyl)-3-chloro-5-(trifluoromethyl)picolinamide]: less than 3.40.
Turning to `NC1=N[C@](CF)(c2cc(NC(=O)c3cnc(OCc4ncco4)cn3)ccc2F)C[C@@H](C(F)(F)F)O1` [Example 46, N-(3-((4S,6S)-2-amino-4-(fluoromethyl)-6-(trifluoromethyl)-5,6-dihydro-4H-1,3-oxazin-4-yl)-4-fluorophenyl)-5-(oxazol-2-ylmethoxy)pyrazine-2-carboxamide], the negative logarithm of the IC50 (pIC50) is less than 3.40.

The experiment is the same for the next values; noted with them: average IC50; read-out: CatD IC50.
On to `COc1cnc(C(=O)Nc2ccc(F)c([C@]3(CF)C[C@H](C(F)(F)F)OC(N)=N3)c2)cn1` (racemic) [Example 25, N-(3-((4S,6R)-2-amino-4-(fluoromethyl)-6-(trifluoromethyl)-5,6-dihydro-4H-1,3-oxazin-4-yl)-4-fluorophenyl)-5-methoxypyrazine-2-carboxamide], for which the negative-log IC50 (pIC50) is less than 3.40.
Still for that read-out and setting: with `Cc1cc(Cl)cnc1C(=O)Nc1ccc(F)c([C@]2(C)C[C@@H](C(F)(F)F)OC(N)=N2)c1` (racemic) [Example 31, N-(3-((4SR,6SR)-2-amino-4-methyl-6-(trifluoromethyl)-5,6-dihydro-4H-1,3-oxazin-4-yl)-4-fluorophenyl)-5-chloro-3-methyl-2-pyridinecarboxamide] the figure was 3.69; with `N#Cc1cnc2c(Nc3ccc(F)c([C@]4(CF)C[C@@H](C(F)(F)F)OC(N)=N4)c3)ncc(F)c2c1` [Example 10, 8-((3-((4S,6S)-2-amino-4-(fluoromethyl)-6-(trifluoromethyl)-5,6-dihydro-4H-1,3-oxazin-4-yl)-4-fluorophenyl)amino)-5-fluoro-1,7-naphthyridine-3-carbonitrile], less than 4.36; with `NC1=N[C@](CF)(c2cc(Nc3ncnc4cc(Cl)cnc34)ccc2F)C[C@@H](C(F)(F)F)O1` [Example 11, (4S,6S)-4-(5-((7-chloropyrido[3,2-d]pyrimidin-4-yl)amino)-2-fluorophenyl)-4-(fluoromethyl)-6-(trifluoromethyl)-5,6-dihydro-4H-1,3-oxazin-2-amine], 4.26.
As for `COc1cnc2c(Nc3ccc(F)c([C@]4(CF)C[C@@H](C(F)(F)F)OC(N)=N4)c3)nccc2c1` [Example 12, (4S,6S)-4-(2-fluoro-5-((3-methoxy-1,7-naphthyridin-8-yl)amino)phenyl)-4-(fluoromethyl)-6-(trifluoromethyl)-5,6-dihydro-4H-1,3-oxazin-2-amine], the pIC50 is less than 3.40.
The same measure, in the same setting: the same measure for `COc1cnc2c(Nc3ccc(F)c([C@]4(CF)C[C@@H](C(F)(F)F)OC(N)=N4)c3)ncnc2c1` [Example 13, (4S,6S)-4-(2-fluoro-5-((7-methoxypyrido[3,2-d]pyrimidin-4-yl)amino)phenyl)-4-(fluoromethyl)-6-(trifluoromethyl)-5,6-dihydro-4H-1,3-oxazin-2-amine]: less than 3.40; for `COc1cnc(C(=O)Nc2ccc(F)c([C@]3(CF)C[C@@H](C(F)(F)F)OC(N)=N3)c2)c(C)n1` [Example 33, N-(3-((4S,6S)-2-amino-4-(fluoromethyl)-6-(trifluoromethyl)-5,6-dihydro-4H-1,3-oxazin-4-yl)-4-fluorophenyl)-5-methoxy-3-methylpyrazine-2-carboxamide]: less than 3.40.
With `COc1ccc(C(=O)Nc2ccc(F)c([C@]3(CF)C[C@@H](C(F)(F)F)OC(N)=N3)c2)nc1` [Example 49, N-(3-((4S,6S)-2-amino-4-(fluoromethyl)-6-(trifluoromethyl)-5,6-dihydro-4H-1,3-oxazin-4-yl)-4-fluorophenyl)-5-methoxypicolinamide], the pIC50 was less than 3.40.
For `NC1=N[C@](CF)(c2cc(NC(=O)c3ncc(Br)cc3Cl)ccc2F)C[C@@H](C(F)(F)F)O1` [Example 56, N-(3-((4S,6S)-2-amino-4-(fluoromethyl)-6-(trifluoromethyl)-5,6-dihydro-4H-1,3-oxazin-4-yl)-4-fluorophenyl)-5-bromo-3-chloro-2-pyridinecarboxamide], the pIC50 was less than 3.40.
The same measure, in the same setting: the same measure for `NC1=N[C@](CF)(c2cc(NC(=O)c3ncc(Cl)cc3Cl)ccc2F)C[C@@H](C(F)(F)F)O1` [Example 58, N-(3-((4S,6S)-2-amino-4-(fluoromethyl)-6-(trifluoromethyl)-5,6-dihydro-4H-1,3-oxazin-4-yl)-4-fluorophenyl)-3,5-dichloropicolinamide]: 2.62.

Still in this experiment, the particulars now being: average; read-out: CatD IC50.
For the molecule `C#CCOc1cnc(C(=O)Nc2ccc(F)c([C@]3(C)C[C@@H](C(F)(F)F)OC(N)=N3)c2)cn1` [Example 45, N-(3-((4S,6S)-2-amino-4-methyl-6-(trifluoromethyl)-5,6-dihydro-4H-1,3-oxazin-4-yl)-4-fluorophenyl)-5-(prop-2-yn-1-yloxy)pyrazine-2-carboxamide], the negative-log IC50 (pIC50) was 2.59.

Usually pIC50 stands for the negative decadic logarithm of the IC50, by convention in mol/L.
